In US8215314B2, “Photochemical tissue bonding” (The General Hospital Corporation, priority 2000, dated 2012):

Key:
[1] = system: corneal incision, rabbit eyes ex vivo; assay: IOP required to produce fluid leakage from corneal incision (IOPL) after PTB, ex vivo; details: 488 nm
[2] = system: corneal incision, rabbit eyes ex vivo; assay: as above; details: for mean IOPL: 4.5 mM, 351 nm
Experimental: PTB can be used to seal or repair a tissue, e.g., a wound, e.g., a corneal wound. This example illustrates the experimental procedure designed to test the efficacy of PTB, as described herein, using mammalian corneas ex vivo. Experiments were performed according to the following procedure.
Rabbit eyes were received on ice (Pel-Freez Biologicals) approximately 17-24 hours after sacrifice and enucleation. The eyes were kept on ice and used the same day. The eye to be studied was mounted on a plastic-covered polystyrene block and fixed in position by needles inserted through the extraocular muscles into the polystyrene. The eye was then placed under a dissecting microscope (Reichert Scientific Instruments, Ill.) allowing visualization of the treated area during the entire procedure. A 27 G needle was inserted parallel to the iris, 2 mm anterior to the limbus into clear cornea, and positioned above the lens in the anterior chamber. The needle was connected to both a blood pressure transducer (Harvard Apparatus, Mass.) and a mini-infuser 400 (Bard Harvard) via a T coupler. The pressure transducer consists of a transducer element that is hard wired to an amplifier box and uses a semi-disposable dome with an integral silicone rubber membrane. Pressure inside the dome is transmitted through the membrane to a plastic button whose motion is translated to a voltage. The voltage generated by the transducer amplifier combination is proportional to the […] intraocular pressure (IOP). Signals from the transducer amplifier were recorded using a Macintosh G3 Power book equipped with a PCMICA (DAQCARD—1200) data acquisition card (National Instruments, Tex.). Data acquisition was controlled using programs written using the LabView 4 software package (National Instruments, Tex.). The voltage from the transducer and amplifier was converted to pressure by calibrating with a standing manometer.
Experiments on individual eyes were initiated by increasing the IOP to 30-40 mm Hg, using water infusion at a rate of 1 mL per minute. An incision was made in the cornea, 1 mm from the limbus and parallel to the iris, using a 3.5 mm angled keratome (Becton Dickinson Co.). For each eye the IOP required to produce fluid leakage from the incision (IOPL) was recorded pre- and post-PTB treatment. A photosensitizer, dissolved in phosphate buffer solution (PBS, pH 7.2, Gibco BRL) was applied to the walls of the incision using a Gastight, 50 μl syringe (Hamilton Co.) with a 27 G needle.
Irradiations employed a continuous wave (CW) argon-ion laser (Innova 100; Coherent, Inc., Palo Alto, Calif.) at 488 nm (for Fl and R-5-P), 514.5 nm (for RB) or 351 nm (for NHPT). An argon-ion-pumped dye laser (CR-599; Coherent) with 4-dicyanomethylene-2-methyl-6-(p-dimethylaminostyryl)-4H-pyran dye (Exciton, Inc., Dayton, Ohio) was used for irradiation at 661 nm (for MB). Laser light was coupled into a 1 mm diameter quartz fiber and a 1 cm diameter spot on the tissue was created by using a combination of 1 and 2 inch focal length, S1-UV grade fused silica, biconvex lenses (Esco Products), mounted in a SM1 series cage assembly (Thorlabs, N.J.). The 1 cm diameter circular spot was sufficient to cover the entire incision and the optics were adjusted so that the laser light was incident on the cornea at an angle approximately 45° to the plane of the incision. Dose response curves were obtained by varying the duration of the irradiation at a constant irradiance. In separate experiments the effects of laser irradiance were investigated by comparison of the same delivered dose using different irradiances. The doses used ranged from 124 to 1524 J/cm^2 and the irradiances used were 0.64, 1.27, 2.55 and 3.86 W/cm^2. The laser exposure time varied from 33 seconds for the lowest dose using the highest irradiance to 26 minutes, 27 seconds for the highest dose using the lowest irradiance. The IOPL was recorded immediately following treatment. […]

[3] = Absorption maxima and absorption coefficients of photosensitizers; assay type: physicochemical; details: for absorption coefficient at the laser wavelength used: RB at 514 nm, Fl at 488 nm, MB at 661 nm, R-5-P at 488 nm, N-HPT at 351 nm
From the text: The photosensitizers were used as received with the exception of N-HPT which was recrystallized twice from aqueous ethanol before use.

Compound: O=C1OC2(c3ccc(O)cc3Oc3cc(O)ccc32)c2ccccc21 [Fl, fluorescein]
- IOPL ([1]; 0.6 mM Fl, 762 J/cm^2 at 3.82 W/cm^2): 116±40 mm Hg

Compound: CN(C)c1ccc2nc3ccc(=[N+](C)C)cc-3sc2c1 [MB, methylene blue]
- post-treatment IOPL ([2]; MB 3 mM, 661 nm, 0.64 W/cm^2, doses 508, 762 and 1016 J/cm^2): did not increase
- absorption maximum [3]: 664 nm
- absorption coefficient at the laser wavelength used [3]: 15600 dm^3 mol^−1 cm^−1

Compound: On1ccccc1=S [N-HPT, N-hydroxypyridine-2-(1H)-thione]
- mean IOPL ([2]; 0.64 W/cm2, 254 J/cm2): 60±23 mm Hg
- mean IOPL ([2]; 0.64 W/cm2, 508 J/cm2): 126±40 mm Hg
- absorption maximum [3]: 314 nm
- absorption coefficient at the laser wavelength used [3]: 2110 dm^3 mol^−1 cm^−1

Compound: Cc1cc2nc3c(=O)[nH]c(=O)nc-3n(C[C@H](O)[C@H](O)[C@H](O)COP(=O)(O)O)c2cc1C [R-5-P, riboflavin-5-phosphate]
- absorption maximum [3]: 445 nm
- absorption coefficient at the laser wavelength used [3]: 4330 dm^3 mol^−1 cm^−1
- post PTB treatment IOPL value ([1]; 11 mM R-5-P, 762 and 1016 J/cm^2, 1.27-3.82 W/cm^2, p<0.05): significantly increased
